Values after ≈ are worked out from the molar mass of the structure shown. Each block holds one compound with its values, some of them ahead of it.
Experiments:
[1] = Aqueous solubility of compound in pH 7.4 PBS buffer at 200 uM; format: physicochemical
[2] = target: T1, Adrenergic receptor alpha-1 (Rattus norvegicus, UniProt P15823+P23944+P43140); experiment: Displacement of [3H]-prazosin from alpha1 adrenergic receptor in rat cortex measured after 30 mins by microbeta2 scintillation counting method; format: tissue-based
T1 sequence (P15823 whole entry): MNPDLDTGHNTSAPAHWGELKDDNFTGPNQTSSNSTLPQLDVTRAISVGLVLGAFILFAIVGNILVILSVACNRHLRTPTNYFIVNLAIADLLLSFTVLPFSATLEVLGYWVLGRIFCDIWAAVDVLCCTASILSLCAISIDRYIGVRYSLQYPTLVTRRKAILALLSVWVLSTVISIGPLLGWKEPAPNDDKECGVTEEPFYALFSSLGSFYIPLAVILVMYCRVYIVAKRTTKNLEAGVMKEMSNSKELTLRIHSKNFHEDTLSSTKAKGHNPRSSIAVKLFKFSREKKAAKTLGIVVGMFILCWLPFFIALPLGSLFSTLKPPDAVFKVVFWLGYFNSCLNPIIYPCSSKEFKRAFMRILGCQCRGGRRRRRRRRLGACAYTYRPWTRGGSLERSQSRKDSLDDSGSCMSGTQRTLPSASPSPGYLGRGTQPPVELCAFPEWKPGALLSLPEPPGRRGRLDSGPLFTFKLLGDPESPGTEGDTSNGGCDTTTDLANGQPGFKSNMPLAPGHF
T1 sequence (P23944 whole entry): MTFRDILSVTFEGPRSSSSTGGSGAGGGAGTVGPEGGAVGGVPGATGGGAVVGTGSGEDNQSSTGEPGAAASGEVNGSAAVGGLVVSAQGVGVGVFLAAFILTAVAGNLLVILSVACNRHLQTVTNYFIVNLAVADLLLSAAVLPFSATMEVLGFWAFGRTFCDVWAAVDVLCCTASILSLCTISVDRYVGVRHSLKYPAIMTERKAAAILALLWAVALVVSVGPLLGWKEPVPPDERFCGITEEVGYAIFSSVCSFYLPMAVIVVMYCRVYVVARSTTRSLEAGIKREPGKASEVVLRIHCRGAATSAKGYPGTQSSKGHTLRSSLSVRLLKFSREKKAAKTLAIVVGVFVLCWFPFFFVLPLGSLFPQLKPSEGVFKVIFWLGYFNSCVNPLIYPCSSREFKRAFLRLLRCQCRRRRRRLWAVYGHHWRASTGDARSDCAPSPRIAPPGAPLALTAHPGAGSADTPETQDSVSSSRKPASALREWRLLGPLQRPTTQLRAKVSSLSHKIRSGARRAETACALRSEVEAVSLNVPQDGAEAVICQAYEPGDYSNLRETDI
T1 sequence (P43140 whole entry): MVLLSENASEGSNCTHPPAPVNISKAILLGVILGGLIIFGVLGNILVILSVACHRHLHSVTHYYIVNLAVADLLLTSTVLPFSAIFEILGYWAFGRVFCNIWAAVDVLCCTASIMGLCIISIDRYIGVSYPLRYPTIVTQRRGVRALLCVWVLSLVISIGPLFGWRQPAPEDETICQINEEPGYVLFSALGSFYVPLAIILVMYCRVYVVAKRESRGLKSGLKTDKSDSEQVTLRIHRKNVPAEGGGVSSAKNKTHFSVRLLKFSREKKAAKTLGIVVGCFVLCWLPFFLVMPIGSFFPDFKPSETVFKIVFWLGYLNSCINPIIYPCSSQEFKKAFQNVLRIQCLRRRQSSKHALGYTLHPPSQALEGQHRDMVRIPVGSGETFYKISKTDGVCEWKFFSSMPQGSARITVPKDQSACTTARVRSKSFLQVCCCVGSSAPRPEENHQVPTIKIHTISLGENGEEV

[3] = target: T2, 5-hydroxytryptamine receptor 1A (Homo sapiens) (UniProt P08908); experiment: Biased agonist activity at human recombinant 5-HT1A receptor stably expressed in CHO-K1 cells assessed as increase in ERK1/2 phosphorylation levels incubated for 15 mins by Alphalisa assay relative to serotonin; format: cell-based
T2 sequence (whole entry): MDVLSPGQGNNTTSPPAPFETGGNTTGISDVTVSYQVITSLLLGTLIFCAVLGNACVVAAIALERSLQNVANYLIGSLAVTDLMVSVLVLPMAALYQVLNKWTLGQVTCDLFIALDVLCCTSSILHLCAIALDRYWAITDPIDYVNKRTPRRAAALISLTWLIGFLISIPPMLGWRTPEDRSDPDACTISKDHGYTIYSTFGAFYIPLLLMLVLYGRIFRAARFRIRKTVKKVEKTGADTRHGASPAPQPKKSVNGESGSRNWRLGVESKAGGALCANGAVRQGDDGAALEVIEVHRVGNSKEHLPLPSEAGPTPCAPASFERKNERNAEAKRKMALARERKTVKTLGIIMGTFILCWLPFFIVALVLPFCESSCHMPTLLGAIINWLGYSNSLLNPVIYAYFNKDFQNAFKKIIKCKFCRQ

[4] = target: T2, 5-hydroxytryptamine receptor 1A (Homo sapiens); experiment: Biased agonist activity at human recombinant 5-HT1A receptor stably expressed in CHO-K1 cells assessed as inhibition of forskolin-induced cAMP accumulation after 40 mins by LANCE Ultra cAMP kit-based TR-FRET assay relative to serotonin; format: functional, cell-based
[5] = target: T2, 5-hydroxytryptamine receptor 1A (Homo sapiens); experiment: Biased agonist activity at Gal4-VP16 transcription factor linked human 5-HT1A receptor expressed in human U2OS cells assessed as stimulation of beta-arrestin recruitment measured after 5 hrs by Tango assay relative to serotonin; format: cell-based
[6] = target: T2, 5-hydroxytryptamine receptor 1A (Homo sapiens); experiment: Biased agonist activity at human recombinant 5-HT1A receptor stably expressed in CHO-K1 cells assessed as increase in calcium mobilization measured at 2 sec intervals for 180 secs by Fluo-4AM dye based fluorescence assay relative to serotonin; format: functional, cell-based; conditions: time 180.0 sec
D(2) dopamine receptor = D(2) dopamine receptor (Homo sapiens, UniProt P14416); experiment: Displacement of [3H]-methylspiperone from recombinant human D2 receptor stably expressed in CHO-K1 cell membranes measured after 60 mins by microbeta2 scintillation counting method; parameters: species or system Cell membrane
[7] = target: T3, 5-hydroxytryptamine receptor 1A (Homo sapiens, UniProt P08908); experiment: Displacement of [3H]8-OH-DPAT from recombinant human 5HT1A receptor stably expressed in CHO-K1 cell membranes measured after 60 mins by microbeta2 scintillation counting method; parameters: species or system Cell membrane
T3 sequence (P08908 whole entry): T2 sequence (whole entry)

[8] = target: T3, 5-hydroxytryptamine receptor 1A; experiment: Biased agonist activity at human recombinant 5-HT1A receptor stably expressed in CHO-K1 cells assessed as inhibition of forskolin-induced cAMP accumulation after 40 mins by LANCE Ultra cAMP kit-based TR-FRET assay; format: functional, cell-based
[9] = target: T2, 5-hydroxytryptamine receptor 1A (Homo sapiens); experiment: (§1) Bias factor, ratio of biased agonist activity at human recombinant 5-HT1A receptor stably expressed in CHO-K1 cells assessed as increase in ERK1/2 phosphorylation levels to biased agonist activity at Gal4-VP16 transcription factor linked human 5-HT1A receptor expressed in human U2OS cells assessed as stimulation of beta-arrestin recruitment; format: cell-based
[10] = target: T3, 5-hydroxytryptamine receptor 1A; experiment: Biased agonist activity at human recombinant 5-HT1A receptor stably expressed in CHO-K1 cells assessed as increase in ERK1/2 phosphorylation levels incubated for 15 mins by Alphalisa assay; format: cell-based
[11] = target: T2, 5-hydroxytryptamine receptor 1A (Homo sapiens); experiment: as §1, with “inhibition of forskolin-induced cAMP accumulation” for “increase in ERK1/2 phosphorylation levels”; format: functional, cell-based
[12] = target: T2, 5-hydroxytryptamine receptor 1A (Homo sapiens); experiment: Bias factor, ratio of biased agonist activity at human recombinant 5-HT1A receptor stably expressed in CHO-K1 cells assessed as increase in ERK1/2 phosphorylation levels to biased agonist activity at human recombinant 5-HT1A receptor stably expressed in CHO-K1 cells assessed as inhibition of forskolin-induced cAMP accumulation; format: functional, cell-based
Rattus norvegicus [13] = experiment: Antidepressant-like activity in Wistar rat assessed as minimum effective dose causing reduction in immobility time administered intraperitoneally with compound 60 mins prior to testing and measured for 5 mins test period by Porsolt-forced swim test; format: functional; conditions: ip, 1.083 h, time 65 min, read-out: MED
Rattus norvegicus [14] = experiment: Antidepressant-like activity in Wistar rat assessed as reduction in immobility time at 10 mg/kg, ip administered 60 mins prior to testing and measured for 5 mins test period by Porsolt-forced swim test; format: functional; parameters: scale not given: the % may be the effect or the level left; conditions: time 65 min, 1.083 h

Sequence of D(2) dopamine receptor (P14416 whole entry): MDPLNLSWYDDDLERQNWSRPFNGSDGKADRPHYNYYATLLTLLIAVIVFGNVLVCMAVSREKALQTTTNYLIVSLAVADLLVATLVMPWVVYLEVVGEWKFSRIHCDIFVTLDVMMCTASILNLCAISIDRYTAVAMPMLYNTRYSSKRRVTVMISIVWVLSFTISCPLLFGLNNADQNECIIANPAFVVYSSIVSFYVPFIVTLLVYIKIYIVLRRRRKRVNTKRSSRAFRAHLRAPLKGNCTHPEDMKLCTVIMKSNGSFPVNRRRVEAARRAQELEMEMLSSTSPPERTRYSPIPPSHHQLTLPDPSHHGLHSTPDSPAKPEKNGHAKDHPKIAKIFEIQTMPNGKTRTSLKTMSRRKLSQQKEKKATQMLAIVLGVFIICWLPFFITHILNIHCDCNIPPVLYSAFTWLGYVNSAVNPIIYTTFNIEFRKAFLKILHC

Compound: COCCc1ccc(OCC(O)CNC(C)C)cc1 (stereo not given) [METOPROLOL]
solubility at 200 µM [1]: 181 µM (≈ 48.3 µg/mL)

Compound: Cc1cnc(OCCNCC2(F)CCN(C(=O)c3ccc(F)c(Cl)c3)CC2)nc1
pKi [2]: < 6
Emax ([3]; filed as partial agonist): 72%
Emax ([4]; filed as partial agonist): 41%
Emax ([5]; filed as partial agonist): 75%

Compound: O=C(c1ccc(F)c(Cl)c1)N1CCC(F)(CNCCNc2ccccn2)CC1
Emax ([6]; filed as partial agonist): 52%
Emax ([4]; filed as agonist): 86%
Emax ([5]; filed as agonist): 99%

Compound: O=C(c1ccc(F)c(Cl)c1)N1CCC(F)(CNCCOc2ncccn2)CC1
pKi [2]: < 6

Compound: CN(C)CCCN1c2ccccc2CCc2ccccc21 [IMIPRAMINE]
minimal effective dose (Rattus norvegicus [13]): 10 mg/kg
Activity (Rattus norvegicus [14]): 25%

Results, then the compound that gave them:

pKi [2]: < 6
Emax ([6]; filed as partial agonist): 74%
Emax ([3]; filed as agonist): 77%
Emax ([4]; filed as agonist): 91%
Emax ([5]; filed as agonist): 99%
Compound: O=C(c1ccc(F)c(Cl)c1)N1CCC(F)(CNCCCc2ccccc2)CC1

Ki (D(2) dopamine receptor): > 1000 nM
Ki [7]: 0.0148 nM
Compound: O=C(c1ccc(Cl)c(Cl)c1)N1CCC(F)(CNCCOc2ccccc2)CC1

EC50 [8]: 2450 nM
Ratio [9]: 0.82
Ki (D(2) dopamine receptor): > 1000 nM
EC50 [10]: 170 nM
Ratio [11]: -0.45
Emax ([3]; filed as partial agonist): 85%
Emax ([4]; filed as partial agonist): 71%
Ki [7]: 0.562 nM
Emax ([5]; filed as partial agonist): 70%
Ratio [12]: 1.27
Compound: O=C(c1ccc(F)c(Cl)c1)N1CCC(F)(CNCCSc2ccccc2)CC1

Emax ([6]; filed as partial agonist): 58%
Emax ([3]; filed as agonist): 85%
Emax ([4]; filed as agonist): 71%
Emax ([5]; filed as agonist): 99%
Compound: O=C(c1ccc(Cl)c(Cl)c1)N1CCC(F)(CNCCOc2ccccn2)CC1

Emax ([6]; filed as agonist): 87%
Emax ([4]; filed as partial agonist): 74%
Emax ([5]; filed as agonist): 101%
Compound: O=C(c1ccc(F)c(Cl)c1)N1CCC(F)(CNCCCc2ccccn2)CC1

Reference: ChEMBL document CHEMBL4706479, “Novel Aryloxyethyl Derivatives of 1-(1-Benzoylpiperidin-4-yl)methanamine as the Extracellular Regulated Kinases 1/2 (ERK1/2) Phosphorylation-Preferring Serotonin 5-HT Receptor-Biased Agonists with Robust Antidepressant-like Activity” (J Med Chem, 2019)
